Source: patent publication US20230277630A1, “METHODS AND COMPOSITIONS FOR TREATING AMYOTROPHIC LATERAL SCLEROSIS” (Amylyx Pharmaceuticals, Inc., priority 2022, published 2023)
Where “and” joins values, the source holds several entries; their conditions need not be identical. Equal entries are not always repeated. Where two headings read alike, the source gives them in different places.

How the values were obtained:
[1] = Relevant concentrations of TUDCA and PB for in vitro transporter assessment ([I]1, [I]2, Iin,max); details: for Plasma Cmax (total [I]1): component of AMX0035; for [I]2: estimated, highest oral dose TUDCA 1000 mg, PB 3000 mg; for Unbound Cmax (Unbound [I]1) / Unbound [I]in, max: projected
OAT1 = biological target: T1, OAT1 (Homo sapiens, UniProt Q4U2R8); assay: OAT1 inhibitor (IC50) assessment, PAH uptake in transfected HEK cells; format: in vitro ADME
T1 construct: expressed in transfected cells; host or cells: HEK293
T1 sequence (Q4U2R8 1-563): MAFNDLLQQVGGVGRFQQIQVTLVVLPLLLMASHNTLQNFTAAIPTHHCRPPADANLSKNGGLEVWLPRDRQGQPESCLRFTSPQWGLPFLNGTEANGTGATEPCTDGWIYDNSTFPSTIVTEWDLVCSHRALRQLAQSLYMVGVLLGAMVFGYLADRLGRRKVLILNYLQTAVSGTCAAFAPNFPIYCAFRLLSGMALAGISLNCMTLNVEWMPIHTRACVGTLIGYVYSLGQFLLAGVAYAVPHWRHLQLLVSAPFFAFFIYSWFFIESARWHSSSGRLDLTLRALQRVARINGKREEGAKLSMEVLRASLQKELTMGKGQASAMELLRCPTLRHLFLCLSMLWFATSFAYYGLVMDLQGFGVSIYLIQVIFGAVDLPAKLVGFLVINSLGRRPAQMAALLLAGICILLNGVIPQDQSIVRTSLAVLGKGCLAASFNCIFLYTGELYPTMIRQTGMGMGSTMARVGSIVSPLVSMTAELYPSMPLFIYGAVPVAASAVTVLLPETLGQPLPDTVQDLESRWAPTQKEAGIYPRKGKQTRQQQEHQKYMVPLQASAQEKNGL

BCRP = biological target: T2, BCRP (Homo sapiens, UniProt Q9UNQ0); assay: BCRP IC50 assessment, bidirectional cladribine transport in C2BBe1 cells
T2 sequence (Q9UNQ0 1-655): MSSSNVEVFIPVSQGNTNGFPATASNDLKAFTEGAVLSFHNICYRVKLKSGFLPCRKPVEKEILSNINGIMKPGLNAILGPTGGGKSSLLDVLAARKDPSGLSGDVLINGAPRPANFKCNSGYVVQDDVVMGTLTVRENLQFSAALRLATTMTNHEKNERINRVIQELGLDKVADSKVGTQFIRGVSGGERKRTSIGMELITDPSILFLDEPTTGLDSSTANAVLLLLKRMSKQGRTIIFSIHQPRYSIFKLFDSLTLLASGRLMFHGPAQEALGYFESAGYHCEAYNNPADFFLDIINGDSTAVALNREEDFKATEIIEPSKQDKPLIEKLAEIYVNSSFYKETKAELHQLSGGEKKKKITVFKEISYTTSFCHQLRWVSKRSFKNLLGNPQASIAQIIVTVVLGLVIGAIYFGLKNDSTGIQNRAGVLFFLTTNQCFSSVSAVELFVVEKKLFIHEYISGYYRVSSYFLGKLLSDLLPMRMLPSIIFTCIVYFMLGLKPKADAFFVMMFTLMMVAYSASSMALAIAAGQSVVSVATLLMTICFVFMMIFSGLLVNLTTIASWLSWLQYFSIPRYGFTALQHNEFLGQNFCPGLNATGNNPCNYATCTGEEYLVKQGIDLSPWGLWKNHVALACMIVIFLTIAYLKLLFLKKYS
Method: After 30 minutes, the pre-incubation solution was aspirated.

OAT3 = biological target: T3, OAT3 (Homo sapiens, UniProt Q8TCC7)
T3 sequence (Q8TCC7 1-542): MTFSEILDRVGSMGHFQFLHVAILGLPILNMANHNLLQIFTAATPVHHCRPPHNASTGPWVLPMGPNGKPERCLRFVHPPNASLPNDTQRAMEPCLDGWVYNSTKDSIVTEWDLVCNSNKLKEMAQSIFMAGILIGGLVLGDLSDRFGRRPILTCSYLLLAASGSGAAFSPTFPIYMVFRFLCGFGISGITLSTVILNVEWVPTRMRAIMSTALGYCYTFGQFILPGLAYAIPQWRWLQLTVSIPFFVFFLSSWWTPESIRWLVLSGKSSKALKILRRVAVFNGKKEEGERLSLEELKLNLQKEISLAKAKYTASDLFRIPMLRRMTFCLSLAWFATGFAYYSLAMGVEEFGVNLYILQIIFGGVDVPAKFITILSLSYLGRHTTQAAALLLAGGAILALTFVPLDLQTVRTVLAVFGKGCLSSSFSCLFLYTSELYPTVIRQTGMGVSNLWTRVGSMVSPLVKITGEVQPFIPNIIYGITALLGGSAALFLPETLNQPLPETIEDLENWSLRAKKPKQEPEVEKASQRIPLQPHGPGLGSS

[2] = biological target: T4, human liver microsomes (HLM) (Homo sapiens, UniProt P20813); assay: CYP reaction phenotyping using HLM and chemical inhibitors (% remaining); format: in vitro ADME; details: human, microsomes, 5 μM, pH 7.4
T4 construct: from tissue; host or cells: pooled human liver microsomes
T4 sequence (P20813 1-491): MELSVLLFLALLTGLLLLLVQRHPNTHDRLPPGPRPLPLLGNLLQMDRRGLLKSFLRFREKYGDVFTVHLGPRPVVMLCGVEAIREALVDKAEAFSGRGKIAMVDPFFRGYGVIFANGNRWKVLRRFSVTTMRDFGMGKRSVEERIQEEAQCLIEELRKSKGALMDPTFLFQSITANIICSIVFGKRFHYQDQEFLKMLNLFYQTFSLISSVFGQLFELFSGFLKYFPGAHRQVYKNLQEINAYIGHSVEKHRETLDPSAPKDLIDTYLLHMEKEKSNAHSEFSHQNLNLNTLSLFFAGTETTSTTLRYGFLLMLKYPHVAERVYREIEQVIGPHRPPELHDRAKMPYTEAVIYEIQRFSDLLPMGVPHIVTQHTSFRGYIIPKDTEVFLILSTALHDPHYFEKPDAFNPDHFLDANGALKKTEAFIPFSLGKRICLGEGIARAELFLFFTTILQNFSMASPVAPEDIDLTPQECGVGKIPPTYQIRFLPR
Text: % Remaining of TA=100×At/A0
Where, At and A0 are the peak area ratio of TA to IS at time t and at time zero, respectively.

[3] = CYP reaction phenotyping: CYP control (negative control without CYP enzymes); details: CYP Control (without CYP enzymes) 0.1 mg protein/mL, TA 5 μM
Method: The reaction was initiated by the addition of NADPH, followed by incubation at 37° C.

[4] = TUDCA and PB present simultaneously, PAH uptake, HEK cells, read-out: estimated IC50 toward OAT1
[5] = previous study (Example 6), converted, read-out: IC50 for in vitro inhibition of human OAT1

Row | SMILES | estimated [I]2 ([1]; Table 28) | projected unbound Cmax ([1]; Table 28) | Plasma Cmax (total [I]1) [1] | [I]2 [1] | Unbound Cmax (Unbound [I]1) [1] | Unbound [I]in, max [1] | IC50 (OAT1; [4]) | IC50 (OAT1; [5]) | IC50 (BCRP) | IC50 (OAT3) | further results
1 | O=C(O)CCCc1ccccc1 [PB, sodium phenylbutyrate] | 64447 µM | 148 µM | 826 µM | 64447 µM | 148 µM | 326 µM | 6.76 to 20.3 µM | 6.72 to 20.2 µM | 1790 to 5370 µM | 4930 to 14800 µM | projected unbound Iin,max ([1]; human): 326 µM; unbound [I]1 ([1]; human): 148 µM
2 | C[C@H](CCC(=O)NCCS(=O)(=O)O)[C@H]1CC[C@H]2[C@@H]3[C@@H](O)C[C@@H]4C[C@H](O)CC[C@]4(C)[C@H]3CC[C@]12C [TUDCA, tauroursodeoxycholic acid] | 8005 µM | 1.62 µM | 108 µM | 8005 µM | 1.62 µM | 3.48 µM | 0.0741 to 0.222 µM | 0.07 to 0.222 µM | 222 to 667 µM | 54 to 162 µM and 5.4 to 162 µM | % Remaining of TA (n = 3) Average ([2]; 0 h): 100%; % Remaining of TA (n = 3) Average ([2]; 5 min): 112%; % Remaining of TA (n = 3) Average ([2]; 10 min): 112%; % Remaining of TA (n = 3) Average ([2]; 20 min): 122%; % Remaining of TA (n = 3) Average ([2]; 0.5 h): 116%; % Remaining of TA (n = 3) Average ([2]; 1 h): 102%; unbound [I]1 ([1]; Table 28): 1.62 µM; projected unbound Iin,max ([1]; oral administration, Table 28): 3.48 µM; IC50 (OAT1; previous study (Example 6), read-out: IC50 for in vitro inhibition of human OAT1): 0.074 to 0.222 µM; % Remaining of TA ([3]; 0 min): 100%; % Remaining of TA ([3]; 5 min): 99.4%; % Remaining of TA ([3]; 10 min): 97.9%; % Remaining of TA ([3]; 20 min): 95.9%; % Remaining of TA ([3]; 30 min): 93.7%
